# Assay results taken from US20120245229A1, “METHOD FOR TREATING NEUROPATHIC PAIN” (priority 2009, published 2012).
# Like-named read-outs stand apart in the source and are kept apart here.
# B1: chemerin: a peptide agonist for ChemR23 (R & D Systems) (protein, UniProt Q99969 21-157, looked up)
# Retinoic acid receptor …: ELTEAQRRGLQVALEEFHKHPPVQWAFQETSVESAVDTPFPAGIFVRLEFKLQQTSCRKRDWKKPECKVRPNGRKRKCLACIKLGSEDKVLGRLVHCPIETQVLREAEEHQETQCLRVQRAGEDPHSFYFPGQFAFS
# modifications: Chemerin
# Experiments:
# [1] = system: glutamate NMDA receptors (NMDARs); test: NMDA-induced currents in dorsal horn (lamina II) neurons of spinal cord slices; type: cell-based, mice; details: NMDA 50 μM; TNF-α 10 ng/ml; PD98059 1 μM, U0126 1 μM, capsazepine 10 μM
# Procedure: (§1) Spinal cord slice preparation. As previously reported^39, a portion of the lumbar spinal cord (L4-L5) was removed from young mice (3-4 week old) under urethane anesthesia (1.5-2.0 g/kg, i.p.) and transverse spinal cord slices were cut (600 μm) on a vibrating microslicer. The slices were perfused with Kreb's solution (8 ml/min) for >2 h prior to experiments. Some slices were stimulated with TNF-α (10 ng/ml, 5 min), the slices were fixed with 4% paraformaldehyde for 1 h, and processed pERK immunohistochemistry using thin sections (15 μm)^13.
# (§2) Patch clamp recordings in spinal slices. Whole cell patch-clamp recordings were performed in lamina II neurons in voltage clamp mode^39. After establishing the whole-cell configuration, neurons were held at the holding potentials of −70 mV for recording spontaneous excitatory postsynaptic current (sEPSC). NMDA-induced currents were recorded by bath application of NMDA (50 μM, Sigma) at the holding potential of −50 mV. Membrane currents were amplified with an Axopatch 200A amplifier (Axon Instruments) in voltage-clamp mode. pCLAMP 6 was used and Mini Analysis (Synaptosoft Inc.) software to store and analyze the data. Those cells showing >5% changes from the baseline levels were reagrded as responding ones^24.
# (§3) Resolvins were also used for intraplantar injection. RvD1 or RvE1 was injected into the plantar surface of a hindapaw [20 ng, 20 μl , in 1% ethanol (Supplementary FIG. 5a, 5b) or in 10% ethanol (FIG. 2e, Supplementary FIG. 1d)]. DRG cultures were incubated with RvE1 (10 ng/ml, 0.1% ethanol in culture medium) and perfused spinal cord slices with RvE1 (1 ng/ml, in 0.01% ethanol and Kreb's solution).
# (§4) Perfusion of spinal cord slices: Spinal cord slices were incubated with chemerin (100 ng/ml, in Kreb's solution), TNF-α (10 ng/ml, in Kreb's solution), capsaicin (100 nM, in 0.01% DMSO and Kreb's solution), TRPV1 antagonist capsazepine (Sigma, 10 μM, in 0.01% DMSO and Kreb's solution), pertussix toxin (0.5 μg/ml, in Kreb's solution), and MEK inhibitor PD98059 and U0126 (CalBiochem, 1 μM, in 0.01% DMSO and Kreb's solution). For pertussix toxin treatment, spinal cord slices were incubated with the toxin for 3 h before stimulation.
# lamina II neurons = test: Patch clamp recording of sEPSCs in lamina II neurons of spinal cord slices; type: cell-based, mice
# Procedure: as §1, §2, §3, §4
# [2] = system: carrageenan (CRG)-elicited heat hyperalgesia; test: Carrageenan (CRG)-elicited heat hyperalgesia; type: in vivo, mice; details: intraplantar ChemR23 siRNA 4 μg at 48 h, 24 h, and 3 h before carrageenan; 4 h after CRG
# Procedure: (§5) Animals and pain models. Adult CD1 mice (male, 25-32 g) were used for most experiments. Knockout mice were used lacking TNFR1/II (Tnfrsf1a/1b^−/−) and TRPV1 (Trpv1^−/−) and C57BL/6 wild-type control mice, all from Jackson, for some experiments. All animal procedures performed in this study were approved by the Harvard Medical Area Standing Committee on Animals. 20 μl of diluted formalin (5%), carrageenan (CRG, 1%), or complete Freund's adjuvant (CFA) were injected into the plantar surface of a hindpaw to produce acute, persistent, or chronic inflammatory pain, respectively. Postoperative pain was also produced through hindpaw incision^36 and neuropathic pain by ligation of the spinal nerve^37.
# (§6) Behavioral analysis. Mice were habituated in the testing environment for two days and performed behavioral testing in a blinded manner. Formalin-evoked spontaneous inflammatory pain was assessed by measuring duration (seconds) animals spent on licking/flinching the affected paws every 5 min for 45 min. Capsaicin-induced spontaneous pain was aslo assessed for 10 min. For testing mechanical sensitivity, mice were put in boxes on an elevated metal mesh floor and stimulated hindpaw with a series of von Frey hairs with logarithmically incrementing stiffness (0.02-2.56 grams, Stoelting), presented perpendicular to the plantar surface. It was determined the 50% paw withdrawal threshold using Dixon's up-down method^40. For testing heat sensitivity, mice were placed in plastic boxes and tested heat sensitivity using Hargreaves radiant heat apparatus (IITC Life Science Inc.). The basal paw withdrawal latency was adjusted to 9-12 seconds and set a cut-off of 20 seconds to prevent tissue damage. The percent maximal possible antinociceptive effect (% M.P.E) was calculated using the equation % M.P.E.=[(PL−BL2)/(BL1−BL2)]×100. BL1, baseline latency before inflammation; BL2, baseline latency after inflammation but before drug injection; PL, latency post drug injection.
# Resolvins were also used for intraplantar injection. […]
# ChemR23 = ChemR23 western blotting after siRNA knockdown; type: in vivo, mice
# Procedure: siRNAs were mixed with the transfection reagent polyethyleneimine (PEI, Fermentas), 10 min before injection, to increase cell membrane penetration and reduce the degradation (Tan et al., 2005; 2009)^9,10. PEI was dissolved in 5% glucose, and […] of siRNA was mixed with 0.18 μl of PEI, as shown in our previous study (Kawasaki et al., 2008)^7. In the formalin model, siRNA was administrated via intrathecal route (3 μg), delivered at 72 h, 48 h, and 24 h before formalin injection (supplementary FIG. 1a, b). In the carrageenan model, siRNA was administrated via intraplantar route (4 μg), delivered at 48 h, 24 h, and 3 h before carrageenan injection (supplementary FIG. 1c, d). The knockdown effects of ChemR23 siRNA were examined by Western blotting using a ChemR23 antibody (Santa Cruz).
# Animals were transcardially perfused with PBS, and the skin, DRG, and spinal cord tissues were rapidly removed and homogenized in a lysis buffer containing a cocktail of protease inhibitors and phosphatase inhibitors. The protein concentrations were determined by BCA Protein Assay (Pierce), and 30 μg of proteins were loaded for each lane and separated on SDS-PAGE gel (4-15%, Bio-Rad). After the transfer, the blots were incubated overnight at 4° C. with polyclonal antibody against ChemR23 (goat, 1:200, Santa Cruz). For loading control, the blots were probed with tubulin antibody (mouse, 1:5000, Sigma).
# [3] = system: formalin-induced inflammatory pain; test: Formalin-induced spontaneous inflammatory pain (licking/flinching duration); type: in vivo, mice; details: for reversal of RvE1's antinociceptive action, formalin 2nd phase: intrathecal, pertussis toxin 0.2 μg, naloxone 2 μg, ChemR23 siRNA 3 μg daily for 3 days before formalin; for formalin-induced pain behavior, 2nd phase: preemptive intrathecal injection, RvE1 0.3 and 1.0 ng, morphine 10 to 500 ng, NS-398 0.1, 1, and 10 μg, chemerin 0.45 to 100 ng
# Procedure: as §5
# (§7) Reagents and administration. RvE1 and RvD1 were suspended in 1% or 10% ethanol as vehicle for investigating acute (<1 h) and persistent (1-6 h) effects of resolvins on inflammatory pain. The reagents (10 μl) were delivered to the cerebral spinal fluid via intrathecal injection made by a spinal cord puncture between the L5 and L6 level with a 30G needle^38.
# as §6
# (§8) Intrathecal injection. To avoid systemic effects of drugs and target spinal mechanisms, drugs were delivered into cerebral spinal fluid (CSF) space around lumbosacral spinal cord via intrathecal (i.t.) administration. Spinal cord puncture was made with a 30G needle between the L5 and L6 level to deliver the reagents (10 μl) to the cerebral spinal fluid (Hylden and Wilcox, 1980)^5. […] In addition to spinal cord cells, intrathecal drug administration also affects DRG cells^6,7.
# Intrathecal injection: DHA and EPA (Cayman Chemical, 10 μg, prepared in 1% ethanol), COX-2 inhibitor NS-398 (Sigma, 0.1, 1, and 10 μg, prepared in 1% ethanol in FIG. 1a-c or in 10% ethanol in FIG. 2c), morphine (Sigma, 10 to 500 ng, prepared in 1% ethanol in FIG. 1a-c), naloxone (Sigma, 2 μg, prepared in 1% ethanol), pertussis toxin (Tocris Bioscience, 0.2 μg, prepared in saline), chemerin (R & D Systems, 0.45 to 100 ng, prepared in 1% ethanol), TNF-α (R & D Systems, 20 ng, prepared in saline), and capsaicin (Sigma, 0.5 μg in 10 μl, prepared in 1% DMSO) were delivered. To examine whether pretreatment of RvE1 attenuated TNF-α-induced persistent hyperalgesia at 1, 3, and 24 h, RvE1 and TNF-α were mixed and injected at the same time (FIG. 3c). To examine whether pretreatment of RvE1 attenuates capsaicin-induced acute spontaneous pain, RvE1 and capsaicin were mixed and injected at the same time (FIG. 3f).
# inflammatory pain = test: Inflammatory pain models induced by formalin or CFA (summary statements); type: in vivo, mouse
# Procedure: as §5, §6
# [4] = system: SNL-induced neuropathic pain; test: Neuropathic pain model induced by spinal nerve ligation (SNL); type: in vivo, mice; details: for SNL-induced heat hyperalgesia: 10 ng, i.t., one day after spinal nerve ligation
# Procedure: as §5, §6
# [5] = system: complete Freund's adjuvant (CFA)-evoked heat hyperalgesia; test: CFA-evoked heat hyperalgesia (paw withdrawal latency, Hargreaves); type: in vivo, mice; details: intrathecal; for effective doses relative to that of RvE1: CFA heat hyperalgesia
# Procedure: as §5, §7, §6, §8
# The anti-hyperalgesic efficacy of RvE1 prepared in 1% and 10% ethanol was compared on post-CFA day 3.
# [6] = capsaicin 100 nM, RvE1 1 ng/ml, chemerin 100 ng/ml, PD98059 and U0126 1 μM
molecule,measurement,setting,value
"N#CC(=C(/N)Sc1ccccc1N)/C(C#N)=C(\N)Sc1ccccc1N [U0126, reference compound]",TNF-α-induced potentiation of NMDA currents (NMDAR activation),[1],blocked
same,capsaicin-evoked sEPSC frequency increase,lamina II neurons,blocked
"Oc1cc2c(cc1O)CN(C(=S)NCCc1ccc(Cl)cc1)CCC2 [capsazepine, reference compound]",TNF-α-induced potentiation of NMDA currents (NMDAR activation),[1],but not capsazepine blocked
same,TNF-α-evoked sEPSC frequency increase,"lamina II neurons; TNF-α 10 ng/ml, RvE1 1 ng/ml, capsazepine 10 μM",reduced
"COc1cc(CNC(=O)CCCC/C=C/C(C)C)ccc1O [capsaicin, reference compound]",increase in sEPSC frequency,lamina II neurons; capsaicin 100 nM,2 fold
"ChemR23 siRNA: 5′-AACACUGUGUGGUUUGUCAACtt-3′, synthesized by Dharmacon (guide AACACUGUGUGGUUUGUCAACTT; chemistry not given here)",reversal of RvE1-induced anti-hyperalgesic effect,[2],reverses RvE1-induced anti-hyperalgesic effect
same,ChemR23 expression in the hindpaw skin,"ChemR23; intraplantar siRNA 4 μg at 48 h, 24 h, and 3 h before carrageenan",reduces ChemR23 expression in the hindpaw skin
same,ChemR23 expression in the DRG,"ChemR23; intrathecal siRNA 3 μg, daily for 3 days, before formalin injection",reduces ChemR23 expression in the DRG
same,"reversal of RvE1's antinociceptive action, formalin 2nd phase",[3],reverses RvE1-induced antinociceptive effect
C=CCN1CC[C@]23c4c5ccc(O)c4O[C@H]2C(=O)CC[C@@]3(O)[C@H]1C5 [naloxone],"reversal of morphine's antinociceptive effect, formalin 2nd phase",[3]; intrathecal naloxone 2 μg,reversed
same,"reversal of RvE1's antinociceptive action, formalin 2nd phase",[3],not RvE1's effect
pertussis toxin,"reversal of RvE1's antinociceptive action, formalin 2nd phase",[3],abrogated
CS(=O)(=O)Nc1ccc([N+](=O)[O-])cc1OC1CCCCC1 [NS-398],"formalin-induced pain behavior, 2nd phase",[3],Reduction
CC/C=C\C[C@H](O)\C=C/C=C/C=C/[C@H](O)C/C=C\C/C=C\CCC(=O)O [PD1],pain-like behaviors,inflammatory pain,potently inhibit
same,nerve injury-induced hyperalgesia,[4]; neuropathic pain model induced by spinal nerve ligation,potently attenuate
"CC/C=C\C/C=C\C/C=C\C/C=C\C/C=C\CCCC(=O)O [EPA, eicosapentaenoic acid, reference compound]",effective doses relative to that of RvE1,[5],"10,000 times higher"
"CC/C=C\C/C=C\C/C=C\C/C=C\C/C=C\C/C=C\CCC(=O)O [DHA, docosahexaenoic acid, reference compound]",effective doses relative to that of RvE1,[5],"10,000 times higher"
"COc1cccc(-c2cc(=O)c3ccccc3o2)c1N [PD98059, reference compound]",TNF-α-induced potentiation of NMDA currents (NMDAR activation),[1],blocked
same,capsaicin-evoked sEPSC frequency increase,lamina II neurons; [6],blocked
"CCC(=O)/C=C/C=C\C[C@@H](O)/C=C/C=C/C=C\[C@@H](O)CCCC(=O)O [18-oxo-RvE1, reference compound]",CFA-evoked heat hyperalgesia,"[5]; post-CFA day 3, DHA and EPA 10 μg",essentially inactive
CN1CC[C@]23c4c5ccc(O)c4O[C@H]2[C@@H](O)C=C[C@H]3[C@H]1C5 [morphine],"formalin-induced pain behavior, 2nd phase",[3],Reduction
"O=C(O)CCC[C@H](O)\C=C/C=C/C=C/[C@H](O)C/C=C\C=C\[C@@H](O)COc1ccc(F)cc1 [19-pf-RvE1, 19-(p-fluorophenoxy)-RvE1]",SNL-induced heat hyperalgesia,[4],more persistent reduction in heat hyperalgesia
same,SNL-induced heat hyperalgesia,[4]; listed as modified RvE1,reduces SNL-induced heat hyperalgesia
same,time for which hyperalgesia was reduced,[5]; post-CFA day 3,6 h
B1,capsaicin-evoked sEPSC frequency increase,lamina II neurons; [6],abolished
same,"formalin-induced pain behavior, 2nd phase",[3],dose-dependently attenuated
